In patent publication US10149907B2, “Combinations of a photosensitizer with a hydrogen sulfide donor, thioredoxin inhibitor or nitroxide for use in photodynamic therapy” (UNIVERSITY OF EXETER, priority 2014, dated 2018):
“And” between values parts separate entries of the source, which are not always exact repeats. Equal entries are not always repeated. “Also recorded” adds a separate entry of the source. Where two headings read alike, the source gives them in different places.

What was measured:
[1] = system: A431 cells
Procedure: A431 cells were seeded at a density of 1×10^5 cells/ml in 96 well plates and incubated under 2% O2 for 48 h prior to treatment. After 24 h, the culture medium was replaced and the cells were placed back into the incubators under 2% O2. Following this incubation period, the culture medium was then removed and the plates were washed with PBS. The cells were then treated with 1 mM MAL in the absence or presence of one of the compounds of interest and then incubated again at 2% O2 for 3 h. For experiments carried out with SRHDs, this treatment step was carried out for 5 h at 2% O2. After treatment, the cells were washed with PBS, the culture medium was replaced and the cells were placed back under 2% O2 for 3 h. Following this final incubation, cell death was analysed using the resazurin viability assay.
Resazurin (7-hydroxy-3H-phenoxazin-3-one 0-oxide) is a weakly fluorescent blue dye used primarily in oxidation-reduction cell viability assays. Irreversible NADH-dependent reduction by the mitochondria in mammalian cells leads to the production of resorufin, a highly fluorescent product with excitation at 571 nm, emission at 585 nm.
A431 cells were seeded into 96 well plates at a density of 1.5*10^6 cells per ml (200 μl per well, 3*10^5 cells) and incubated for 24 h to adhere. Following incubation, the cells were washed and treated with the compound of interest for the relevant time, and then washed with PBS. […] After a 2 h incubation, the fluorescence of each well was measured (excitation: 571 nm, emission: 585 nm) using a fluorescence plate reader. Data from these experiments was plotted as a percentage of cell viability compared to untreated control cells.

[2] = system: A431 cells; test: MAL-induced PpIX accumulation, fluorescence plate reader; type: cell-based, human; details: for PpIX accumulation, percentage of the MAL alone treatment: FIG. 38; for effect on PpIX fluorescence: 0.01 mM + 1 mM MAL; for increase in PpIX fluorescence: 1 mM + 1 mM MAL
[3] = system: A431 cells; test: Photodynamic cell killing in the presence of inhibitors of the thioredoxin antioxidant system or nitroxides (annexin V-FITC/propidium iodide flow cytometry); type: cell-based, human; details: for cell death: 3 h, irradiation; for potentiating effect on MAL photodynamic cell killing: summary of Examples 2A, 3A
Procedure: After this treatment, the cells were irradiated for 5 min (630 nm, 25 J/cm^2), then washed with PBS and the culture medium was replaced, after which the cells were placed back under 2% O2 and incubated for a further 3 h. Following this final incubation, cell death was analysed by annexin V-FITC and propidium iodide staining in conjunction with flow cytometry.
Cell death analysis by flow cytometry was carried out using the annexin V-FITC/propidium iodide protocol. This protocol allows a quantitative assessment of cell death, particularly specific modes of death, and involves staining the cells with fluorescein isothiocyanate-conjugated annexin A5 (annexin V-FITC) and propidium iodide (PI). Positive staining with annexin V-FITC alone indicates an apoptotic cell; positive staining with PI alone indicates a necrotic cell and dual staining of both annexin V and PI indicates a “late apoptotic” cell.
From each flask being assessed, the old medium was removed and placed into a corresponding individual 15 ml Falcon tube in order to collect any cells that may have detached from the surface. The flask was washed once with 1 ml PBS; also deposited in the Falcon tubes. Trypsin (500 μl) was added to each flask and the flasks were returned to the incubator with their caps loosened. Cell detachment was monitored using an inverted light microscope, until 50% of the cells were detached. The flasks were then lightly tapped to detach the remainder of the cells. Medium (2 ml) was added to each flask in order to neutralise the trypsin present before being removed and dispensed into the Falcon tubes. One more wash with PBS was carried out in order to ensure any cells left in the flasks were collected. The Falcon tubes were then centrifuged at 490 g for 3 min, forming a pellet at the bottom of the tube. The supernatant was discarded, and the cells were re-suspended in 5 ml of PBS, in order to wash them, before being centrifuged again at 490 g for 3 min. The wash stage was carried out once more before re-suspending the cell pellet in 95 μl of ice cold calcium (Ca^2+) buffer (50 mM HEPES, 700 mM NaCl, 12.5 mM CaCl2, pH 7.4) and adding 5 μl 12.5 μg/ml of annexin V-FITC (final concentration, 1.25 μg/ml), under reduced light conditions to prevent bleaching of the FITC. The Falcon tubes were placed on ice and in the dark for 15 min to allow annexin V staining. After 15 min, 860 μl of Ca^2+ buffer (10 mM Hepes adjusted to pH 7.4, 140 mM NaCl and 2.5 mM CaCl2) was added, followed by 40 μl of 1 mg/ml PI in water (final concentration, 0.04 mg/ml) to give a final volume of 1 ml. The samples were then ready to be assessed by flow cytometry.
The following flow cytometry process of sample detection was used. When using annexin V-FITC and PI, the detectors being used were FL1 (λmax=520 nm) and FL3 (λmax=670 nm), respectively, each with their own logarithmic histogram generated by the software. The intensity of the fluorescence detected is measured on a logarithmic scale on the x-axis and the y-axis represents the number of cells detected at a given fluorescence intensity. A plot of FL1/FL3 produces a 4-quadrant graph, where unstained and untreated cells are located in the bottom left quadrant, representing any cells found in the 1st decade of the single plot logarithmic histograms. Single staining with annexin V-FITC and PI are located in the bottom right and top left quadrant, respectively, and dual staining is located in the top right quadrant. These quadrants represent any cells detected above the 1st decade of the logarithmic histograms.

[4] = system: A431 cells; test: Mitochondrial reactive oxygen species generation during photodynamic irradiation, MitoSOX flow cytometry; type: cell-based, human; details: 3 hours, irradiated
Procedure: A431 cells were treated concurrently with AP39-C10 (10, 100 or 1000 nM) for 5 hours, MAL (1 mM) for 3 hours and MitoSOX (2.5 μM) for 1 hour, after which they were irradiated for 5 min (630 nm, 25 J/cm^2) and MitoSOX (mito-2-OH-E^+) fluorescence, indicative of mitochondrial oxidant production, was immediately analysed by flow cytometry. Results are set out in FIG. 23.
Mitochondria-targeted dihydroethidium (i.e. MitoSOX) was used to assess the production of mitochondrial reactive oxygen species (ROS) by PpIX photochemical reactions and to determine the effects of AP39-C10 on this process. All of the results are represented as a percentage of the untreated controls (100.0±8.5%). The fluorescence of the photoirradiated cells, which had been pre-treated with MAL, was 193.7±7.3% (p<0.001 c.f. untreated controls).

[5] = 1 mM MAL + co-treatment 1 mM (1000 μM)
[6] = 1 mM MAL + nitroxide 1 mM (MitoTEMPO 50 μM) + irradiation, FIG. 13, 34
[7] = MAL 1 mM + co-treatment 1 mM (1000 μM)

Row | SMILES | cell viability, percentage of untreated control ([1]; 0.25 mM with 1 mM MAL, 3 hours) [%] | cell viability, percentage of untreated control ([1]; 0.5 mM with 1 mM MAL, 3 hours) [%] | cell viability, percentage of untreated control ([1]; 1 mM with 1 mM MAL, 3 hours) [%] | cell viability, percentage of untreated control ([1]; 2 mM with 1 mM MAL, 3 hours) [%] | cell viability, percentage of untreated control ([1]; 5 mM with 1 mM MAL, 3 hours) [%] | cell viability, percentage of untreated control ([1]; 10 mM with 1 mM MAL, 3 hours) [%] | cell viability, percentage of untreated control ([1]; 10 mM, 24 hours) [%] | cell viability, percentage of untreated control ([1]; 50 mM, 24 hours) [%] | PpIX accumulation, percentage of the MAL alone treatment ([2]; 10 μM + MAL 1 mM, 3 hours) [%] | effect on PpIX fluorescence ([2]; 3 h) | PpIX accumulation, percentage of the MAL alone treatment ([2]; 100 μM + MAL 1 mM, 3 hours) [%] | increase in PpIX fluorescence ([2]; 3 h) [fold] | PpIX accumulation, percentage of the MAL alone treatment ([2]; 1000 μM + MAL 1 mM, 3 hours) [%] | cell death [3, 5] | modes of cell death [3, 6] | potentiating effect on MAL photodynamic cell killing [3] | MitoSOX fluorescence, percentage of untreated cells [4, 7] | also measured
1 | CC1(C)CCCC(C)(C)N1[O] [TEMPO, 2,2,6,6-tetramethyl-1-piperidinyloxy] | 97.8±3.4 | 97.5±1.7 | 98.6±6.8 | 97.4±6.2 | 92.9±6.6 | 79.9±8.5 | 64.9±0.1 | 8.5±0.2 | 100.3±3.8 | increased PpIX fluorescence slightly, but this was not statistically significant | 127.0±3.3 | ~2 | 159.2±4.1 | 52.0±8.3% and 46.3±3.6% | an increase in apoptotic and late apoptotic cell death; also recorded: a further increase in late apoptosis and necrosis with little effect on apoptotic cell death | more robust potentiating effect | 418.8±6.3% | increase in PpIX accumulation compared to MAL alone ([2]; 50 μM + MAL 1 mM, 3 hours, FIG. 35): 0.0±4.9%; peak response, increase in PpIX accumulation compared to MAL alone ([2]; peak at TEMPO 5 mM, MitoTEMPO 100 μM, CP94 100 μM, MAL 1 mM, 3 hours): 138.1±10.5%
2 | CC1(C)CC(O)CC(C)(C)N1[O] [TEMPOL, 4-hydroxy-2,2,6,6-tetra methylpiperidine 1-oxyl] | 99.3±4.4 | 102.0±3.6 | 99.8±2.9 | 104.2±3.3 | 116.2±2.7 | 77.8±4.7 |  |  | 109.0±2.7 | increased PpIX fluorescence slightly, but this was not statistically significant | 141.2±4.2 | ~2 | 209.2±5.1 | 50.8±6.8% and 69.3±3.1% | an increase in late apoptotic and necrotic cell death; also recorded: a further increase in late apoptosis and necrosis with little effect on apoptotic cell death | more robust potentiating effect | 253.3±6.3% and 316.8±1.6% | effect on PpIX accumulation ([2]; 0.1 mM and 1 mM + 1 mM MAL, 3 h): significantly increased PpIX accumulation further; modes of cell death ([3]; 1 mM MAL + TEMPOL, dependent on concentration + irradiation, FIG. 37): an increase in apoptosis and late apoptosis, with smaller increases in necrosis also observed; cell death ([3]; 1 mM MAL + co-treatment 10 μM): 40.5±4.1%; cell death ([3]; 1 mM MAL + co-treatment 100 μM): 48.5±7.4%; MitoSOX fluorescence, percentage of untreated cells ([4]; MAL 1 mM + co-treatment 10 μM): 99.4±5.44%; MitoSOX fluorescence, percentage of untreated cells ([4]; MAL 1 mM + co-treatment 100 μM): 226.5±19.4%
3 | CC1(C)CC(=O)CC(C)(C)N1[O] [TEMPONE] |  |  |  |  |  |  | 80.3±13.3 | 53.7±13.3 | 100.3±4.0 |  | 123.8±2.5 |  | 160.2±3.2 | 37.9±2.3% | a further increase in late apoptosis and necrosis with little effect on apoptotic cell death | mild potentiating effect | 226.4±6.8% | 
